A short description of data set [1]: Metabolite profile in plasma, liver and HT29 tumor after i.p. SN30000. In kind it is in vivo, NIH-III mice. Particulars: SN30000 186 mg/kg i.p.; for Metabolite/SN30000 peak area, Tumor: HT29 tumor. As to the method: Mouse plasma and tissue homogenates, prepared from tissue samples in two volumes of ice-cold PBS using a TissueLyser II (Qiagen Sciences, Germantown, MD, United States) with 30 Hz oscillation frequency for 1 min, were processed by precipitating proteins with 3 vol MeOH and centrifuging (13,000 g, 4°C for 10 min). Supernatants were diluted into 3 vol water and analyzed with an Agilent model 6460 LC-MS/MS with an in-line photodiode array absorbance detector. Chromatographic separation was performed on a Zorbax Eclipse C18 column (100 mm × 3.0 mm, 1.8 μm; Agilent Technologies) at 35°C with a flow rate of 0.6 mL/min, with positive or negative mode electrospray ionization. The mobile phase was a gradient constructed using 80% MeCN/20% water/0.1% formic acid v/v/v (A) and 0.1% formic acid in water (B) from 10% A to 80% A with a total run time of […]. The gradient profile was: 0–4 min, 10% A; 4–11 min linear increase to 60% A; 11–12 min to 80% A; held for 1 min, returned to 10% A over 0.5 min and held for 2 min before the next sample injection. Absorbance spectra were collected from 230 to 600 nm with a reference wavelength of 550 nm. The mass/charge (m/z) ratio was scanned from 100 to 800 with a fragmentor voltage of 120 V. MS^2 with various collision energies was used for further characterization of some metabolites.
Metabolites were investigated in plasma, liver and HT29 tumors following i.p. dosing of female NIH-III mice with SN30000 at 186 mg/kg, which represents its previously determined MTD for this route and mouse strain ([Gu et al., 2014]). Representative chromatograms are shown in Supplementary Figure 1. A total of 19 metabolites (M1–M19) were provisionally identified (Figure 1 and Table 1). Assignments were confirmed by comparison with synthetic standards in the case of the 1-oxide M14 and nor-oxide M13, which have previously been reported as murine metabolites of SN30000 ([Wang et al., 2012]) and for M15 which is known to be the major photodegradation product of SN30000 ([Gu et al., 2014]). In addition, the previously unreported metabolite M18, which is the main plasma metabolite at late times, was isolated from pooled plasma of mice dosed with M14 in sufficient quantity for characterization by NMR (Supplementary Data). This identified M18 as an oxidation product of M14 with an alkanoic acid side-chain (Figure 1), an assignment that was confirmed by synthesis of the authentic compound which was identical by HPLC retention time, absorbance spectrum, elemental analysis, mass spectrum and NMR spectroscopy.

The nature of data set [2]: in vivo. Particulars: NIH-III, mouse, ip, 186 mg/kg.
Procedure: M18 was quantified by absorbance detection with reference to an external standard calibration curve.
Concentration-time data were analyzed by non-compartmental analysis using Phoenix WinNonlin (ver 6.4, Build 6.4.0768 Pharsight, United States); all AUC values were extrapolated to infinity using the linear trapezoidal rule.
SN30000, M14 and M13 were quantified by LC-MS/MS using stable isotope internal standards, while M18 was quantified by absorbance detection using external standard calibration curves.
Data set [3] in a line: Plasma protein binding by equilibrium dialysis. In kind it is in vitro ADME. To be noted: NIH-III mouse plasma, 37°C, 6 h. On the procedure: TABLE 11: Protein binding of SN30000, M14 and M18 at the indicated concentrations in NIH-III mouse plasma, measured by equilibrium dialysisa.
(µM) Percent Protein Bound (Mean ± SD)b […]
a Protein binding was evaluated by equilibrium dialysis using a high throughput plate with 12-14KDa dialysis membrane (HTDialysis, Gales Ferry, CT) as described by Banker et al., 2003, with modification. Briefly, 100 µL samples of plasma containing SN30000 or metabolites (M14 and M18) were dialysed against 100 µL PBS (pH 7.4) in an incubator (Innova-42, New Brunswick Scientific, US ) at 37°C with shaking at 80 rpm for 6 h. To achieve matrix match, 10 µL of blank plasma was added to 90 µL of the PBS sample and 90 µL of PBS was added to 10 µL of the plasma sample. Proteins were precipitated with 3 vol of ice-cold MeCN, the centrifuged supernatants were mixed with 2 vol 45 mM ammonium formate buffer pH 4.5, and 50 µL samples were analysed by HPLC with absorbance […]
bValues are mean and SD for triplicate samples.
(In general: Equilibrium dialysis compares concentrations on both sides of a semipermeable membrane.)

In data set [4] the test system is HCT116 cells. Kind of data set: Antiproliferative potency, 4 h exposure, sulforhodamine B. In kind it is cell-based, human. To be noted: for IC50: Homo sapiens, HCT-116, 4 h, HCT116, 4 h exposure. As to the method:
Antiproliferative potency of SN30000 and its major metabolites following 4 h exposure of HCT116 cells under aerobic or anoxic conditions. […]
a HCT116 cells, originally from ATCC, were authenticated by short tandem repeat profiling and confir med mycoplasma-free by PCR/ELISA assay . Cells were passaged in Alpha MEM with 5% foetal bovine serum without antibiotics. In vitro cytotoxicity of SN30000 and metabolites was measured as the inhibition of cell proliferation as described previously (Gu et al., 2009). Briefly, cells were exposed to compounds for 4 h under aerobic (20% O2) or anoxic (Bactron anaerobic chamber) conditions and then grown in an aerobic 5% CO 2 incubator for 5 d before staining with sulforhodamine B. IC50 values were deter mined by interpolation (nonlinear regression to the standard Hill equation) as the drug concentration reducing staining to 50% of controls on the same plate. b Values are mean ± SEM for the numb er of independent experiments shown in parentheses.

Setting [5] is: aerobic (20% O2), read-out: IC50.
Setting [6] is: in vivo, i.p. SN30000 186 mg/kg, plasma, non-tumour-bearing mice.
The mark [7] stands for this setting: in vivo, Elimination half-life, i.p. SN30000 186 mg/kg, all tissues except tumors.
[8] abbreviates: in vivo, Terminal T1/2, i.p. SN30000 186 mg/kg, HT29 tumour, tumour-bearing mice.
Setting [9] is: in vivo, Terminal T1/2, i.p. SN30000 186 mg/kg, brain, non-tumour-bearing mice.
The mark [10] stands for this setting: in vivo, Terminal T1/2, i.p. SN30000 186 mg/kg, liver, HT29 tumour-bearing mice.
The mark [11] stands for this setting: in vivo, Terminal T1/2, i.p. SN30000 186 mg/kg, liver, non-tumour-bearing mice.
Setting [12] is: in vivo, Terminal T1/2, i.p. SN30000 186 mg/kg, plasma, HT29 tumour-bearing mice.
The mark [13] stands for this setting: in vivo, Terminal T1/2, i.p. SN30000 186 mg/kg, plasma, non-tumour-bearing mice.
[14] abbreviates: in vivo, i.p. SN30000 186 mg/kg, plasma, HT29 tumour-bearing mice.

SMILES strings stand for the structures. Where two headings read alike, the source gives them in different places.

Broadly, the half-life is how long it takes for the measured level to halve. As a reminder, the Tmax is the time from dosing to the highest level. As usually defined, the IC50 is the concentration that gives 50% inhibition. The Cmax is the highest concentration seen after dosing.

`c1c2c(cc3nc(CCCN4CCOCC4)nnc13)CCC2` [M13]: in data set [1], the “Metabolite/SN30000 peak area, Tumor” value came out at 0.11. Besides, the “Metabolite/SN30000 peak area, Liver” value in data set [1] is listed as 1.50. In addition, in data set [1], the “Metabolite/SN30000 peak area, Plasma” value is recorded as 0.08. Further, the half-life in data set [2] (HT29 tumour, Terminal T1/2, i.p. SN30000 186 mg/kg, tumour-bearing mice) is 126 min; in data set [2] (all tissues except tumors, Elimination half-life, i.p. SN30000 186 mg/kg) it was approximately 30 min; in data set [2] (brain, Terminal T1/2, i.p. SN30000 186 mg/kg, non-tumour-bearing mice) it was 34.9 min; in data set [2] (liver, Terminal T1/2, i.p. SN30000 186 mg/kg, HT29 tumour-bearing mice), 52.4 min; in data set [2] (liver, Terminal T1/2, i.p. SN30000 186 mg/kg, non-tumour-bearing mice), 42.1 min; in data set [2] (plasma, Terminal T1/2, i.p. SN30000 186 mg/kg, HT29 tumour-bearing mice), 53.2 min. In data set [2] (plasma, Terminal T1/2, i.p. SN30000 186 mg/kg, non-tumour-bearing mice), this molecule gave a half-life of 42.4 min. Further, the Tmax in data set [2] was not above 5 min.
Take `[O-][n+]1nc(CCCN2CCOCC2)nc2cc3c(cc21)CCC3` [M14]: the “Metabolite/SN30000 peak area, Tumor” value in data set [1] was 0.41. The “Metabolite/SN30000 peak area, Liver” value in data set [1] was 5.18. In data set [1], the “Metabolite/SN30000 peak area, Plasma” value came out at 0.35. In addition, the “Percent Protein Bound (Mean ± SD)” value in data set [3] (100 µM) was 65.81 ± 0.02%. Besides, the IC50 in data set [4] (setting [5]) is 600 ± 60 µM; in data set [4] (anoxic, read-out: IC50), 900 ± 100 µM. Moreover, in data set [2] (in vivo), the Tmax is not above 5 min. Further, the Cmax in data set [2] (setting [6]) is 36.1 ± 5.5 µM. Besides, the half-life in data set [2] (setting [7]) is approximately 30 min; in data set [2] (setting [8]), 94.8 min; in data set [2] (setting [9]), 32.1 min; in data set [2] (setting [10]), 42.7 min; in data set [2] (setting [11]), 40.5 min; in data set [2] (setting [12]) it was 40.6 min. This molecule also had a half-life in data set [2] (setting [13]) of 37.8 min.
Regarding `O=C(O)CCc1nc2cc3c(cc2[n+]([O-])n1)CCC3` [M18], in data set [1], the “Metabolite/SN30000 peak area, Tumor” value was determined as 1.63. Moreover, the “Metabolite/SN30000 peak area, Liver” value in data set [1] is recorded as 0.60. For the same molecule, the “Metabolite/SN30000 peak area, Plasma” value in data set [1] is listed as 1.14. Also, the “Percent Protein Bound (Mean ± SD)” value in data set [3] (10 µM) stood at 91.77 ± 0.01%; in data set [3] (100 µM), 90.32 ± 0.01%. The IC50 in data set [4] (setting [5]) is more than 1670 µM; in data set [4] (anoxic, read-out: IC50), more than 1670 µM. For the same molecule, the “Potency relative to SN30000 (fold less potent)” value in data set [4] (anoxic HCT116 cultures) is recorded as “at least 1000 fold”. In addition, the Cmax in data set [2] (setting [14]) amounted to 139 ± 6 µM; in data set [2] (setting [6]) it was 119 ± 3 µM. Moreover, the half-life was 392 min in data set [2] (setting [10]), 183 min in data set [2] (setting [11]), 960 min in data set [2] (setting [12]) and 173 min in data set [2] (setting [13]).
For `[O-][n+]1nc(CCCN2CCOCC2)[n+]([O-])c2cc3c(cc21)CCC3` [SN30000, 3-(3-Morpholinopropyl)-7,8-dihydro-6H-indeno[5,6-e][1,2,4]triazine 1,4-dioxide], the “Metabolite/SN30000 peak area, Tumor” value in data set [1] turned out to be 1.00. Moreover, in data set [1], the “Metabolite/SN30000 peak area, Liver” value was 1.00. The “Metabolite/SN30000 peak area, Plasma” value in data set [1] worked out at 1.00. In addition, the “Percent Protein Bound (Mean ± SD)” value is 21.93 ± 0.17% in data set [3] (10 µM) and 26.68 ± 0.04% in data set [3] (100 µM). Moreover, the 50% inhibitory concentration (IC50) was 148 ± 20 µM in data set [4] (aerobic (20% O2)) and 1.7 ± 0.4 µM in data set [4] (anoxic). For the same molecule, the Tmax in data set [2] (in vivo) is not above 5 min. Besides, the Cmax amounted to 217 ± 18 µM in data set [2] (setting [14]) and 210 ± 9 µM in data set [2] (setting [6]). Also, the half-life in data set [2] (setting [7]) is approximately 30 min; in data set [2] (setting [8]), 36.2 min; in data set [2] (setting [9]) it was 26.4 min; in data set [2] (setting [10]), 35.7 min; in data set [2] (setting [11]) it was 44.3 min; in data set [2] (setting [12]), 33.9 min. For the same molecule, the half-life in data set [2] (setting [13]) came out at 32.7 min.

The values above are taken from publication PMC5554537 (Frontiers in Pharmacology, 2017).
